The source of these data is ChEMBL document CHEMBL3272209, “Anthelmintic 1-cinnamamido-2,4-imidazolidinediones” (1976).

Assay type in all cases: functional
In test [1] the test system is Syphacia obvelata. Kind of test: Anthelmintic activity against Syphacia obvelata infected in mouse assessed as reduction in worm burden at 300 mg/kg, po bid for 5 days. As to conditions: 120 h.
Test [2] relates to Syphacia obvelata. Kind of test: Anthelmintic activity against Syphacia obvelata infected in mouse assessed as reduction in worm burden at 100 mg/kg, po bid for 5 days. As to conditions: 120 h.
Test [3] relates to Syphacia obvelata. As to the kind of experiment: Anthelmintic activity against Syphacia obvelata infected in mouse assessed as reduction in worm burden at 50 mg/kg, po bid for 5 days. As to conditions: for inhibition in vivo at 50 mg/kg: 120 h.
The test system of test [4] is Syphacia obvelata. As to the kind of experiment: Anthelmintic activity against Syphacia obvelata infected in mouse assessed as reduction in worm burden at 25 mg/kg, po bid for 5 days. As to conditions: for inhibition in vivo at 25 mg/kg: 120 h.
Test [5] concerns Syphacia obvelata. Kind of test: Anthelmintic activity against Syphacia obvelata infected in mouse assessed as reduction in worm burden at 10 mg/kg, po bid for 5 days.

The source made the active and inactive calls. The calls are words filed in the database; no cut-off is given here.

The term inhibition in vivo denotes the share of the control response that was lost under treatment. Consider `O=C(/C=C/c1ccc(F)c(Cl)c1)NN1CC(=O)NC1=O`, for which the inhibition in vivo at 300 mg/kg in test [1] came out at 100%. For the same molecule, in test [2], the inhibition in vivo at 100 mg/kg is 100%. Further, in test [3], the inhibition in vivo at 50 mg/kg is 87%. Further, the inhibition result in test [4] is “inactive”.
Regarding `O=C(/C=C/c1ccc(Cl)c(Cl)c1)NN1CC(=O)NC1=O`, the inhibition in vivo at 300 mg/kg in test [1] was determined as 100%. Also, in test [2], the inhibition in vivo at 100 mg/kg was found to be 100%. Further, in test [3], the inhibition in vivo at 50 mg/kg turned out to be 100%. In test [4], the inhibition in vivo at 25 mg/kg amounted to 51%. For the same molecule, the inhibition entry in test [5] is “inactive”.
Take `O=C(/C=C/c1ccc(Cl)cc1)NN1CC(=O)NC1=O`: the inhibition in vivo at 300 mg/kg in test [1] amounted to 100%. In addition, in test [2], the inhibition in vivo at 100 mg/kg came out at 97%. Besides, the inhibition in vivo at 50 mg/kg in test [3] turned out to be 52%. The inhibition entry in test [4] was “inactive”.
As for `O=C(/C=C/c1ccc(Cl)c(C(F)(F)F)c1)NN1CC(=O)NC1=O`, the inhibition in vivo at 300 mg/kg in test [1] worked out at 70%. Besides, the inhibition in vivo at 100 mg/kg in test [2] is 76%. Moreover, the inhibition entry in test [3] was “inactive”.
Taken in the same sequence, the figures for `O=C(/C=C/c1cccc(F)c1)NN1CC(=O)NC1=O` were 100%, 77% and “inactive”.
Consider `O=C(/C=C/c1ccc2c(c1)OCO2)NN1CC(=O)NC1=O`, for which, in test [1], the inhibition in vivo at 300 mg/kg turned out to be 100%. The inhibition in vivo at 100 mg/kg in test [2] is 88%. Further, the inhibition entry in test [3] was “inactive”.
In the case of `N#Cc1ccc(/C=C/C(=O)NN2CC(=O)NC2=O)cc1`, the inhibition in vivo at 300 mg/kg in test [1] turned out to be 100%. Moreover, the inhibition in vivo at 100 mg/kg in test [2] was determined as 100%. The inhibition in vivo at 50 mg/kg in test [3] is 100%. Further, the inhibition in vivo at 25 mg/kg in test [4] was 97%. For the same molecule, the inhibition result in test [5] is “inactive”.
In the case of `C1CNCCN1.O=C(O)CCCCC(=O)O`, the inhibition in vivo at 300 mg/kg in test [1] was 96%. Besides, the inhibition in vivo at 100 mg/kg in test [2] is 42%. Moreover, the inhibition entry in test [3] is “inactive”.
On to `Cc1ccc(/C=C/C(=O)NN2CC(=O)NC2=O)cc1Cl`, for which the inhibition in vivo at 300 mg/kg in test [1] came out at 99%. Also, the inhibition in vivo at 100 mg/kg in test [2] was 97%. Further, in test [3], the inhibition in vivo at 50 mg/kg was 100%. Moreover, in test [4], the inhibition in vivo at 25 mg/kg was found to be 87%. In addition, the inhibition in vivo at 10 mg/kg in test [5] (120 h) is 34%.
Regarding `CCc1ccc(/C=C/C(=O)NN2CC(=O)NC2=O)cc1Cl`, the inhibition in vivo at 300 mg/kg in test [1] is 100%. In addition, the inhibition in vivo at 100 mg/kg in test [2] came to 87%. For the same molecule, the inhibition result in test [3] is “inactive”.
As for `Cc1cc(/C=C/C(=O)NN2CC(=O)NC2=O)ccc1Br`, in test [1], the inhibition in vivo at 300 mg/kg was determined as 100%. Also, the inhibition in vivo at 100 mg/kg in test [2] was determined as 81%. The inhibition entry in test [3] is “inactive”.
Turning to `O=C(/C=C/c1ccc(F)cc1)NN1CC(=O)NC1=O`, the inhibition in vivo at 300 mg/kg in test [1] is 100%. In addition, the inhibition in vivo at 100 mg/kg in test [2] turned out to be 69%. Also, the inhibition in vivo at 50 mg/kg in test [3] stood at 67%. In addition, the inhibition entry in test [4] was “inactive”.
`O=C(/C=C/c1ccccc1)NN1CC(=O)NC1=O`: the inhibition in vivo at 300 mg/kg in test [1] was 86%. In addition, the inhibition in vivo at 100 mg/kg in test [2] was 75%. Moreover, the inhibition entry in test [3] was “inactive”.
